Measurements taken from publication PMC3904457 (ACS medicinal chemistry letters, 2013).

Biological target: T1, COX-1 (Ovis aries, UniProt P05979)
T1 sequence (P05979 25-600): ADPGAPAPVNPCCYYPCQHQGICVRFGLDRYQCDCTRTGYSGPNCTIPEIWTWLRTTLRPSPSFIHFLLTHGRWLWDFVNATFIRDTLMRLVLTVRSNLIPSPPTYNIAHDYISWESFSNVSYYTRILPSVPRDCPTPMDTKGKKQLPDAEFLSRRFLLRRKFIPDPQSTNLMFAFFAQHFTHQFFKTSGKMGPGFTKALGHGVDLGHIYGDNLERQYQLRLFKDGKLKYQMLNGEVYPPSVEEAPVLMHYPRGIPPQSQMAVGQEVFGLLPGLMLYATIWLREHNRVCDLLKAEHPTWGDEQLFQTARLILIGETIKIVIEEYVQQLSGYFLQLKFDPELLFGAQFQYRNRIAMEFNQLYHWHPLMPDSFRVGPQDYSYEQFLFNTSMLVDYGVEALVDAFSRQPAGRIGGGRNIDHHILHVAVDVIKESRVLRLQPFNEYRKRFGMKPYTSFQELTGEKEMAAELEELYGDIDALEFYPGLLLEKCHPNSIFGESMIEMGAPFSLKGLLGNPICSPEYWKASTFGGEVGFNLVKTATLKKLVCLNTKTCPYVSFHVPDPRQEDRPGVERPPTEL
Assay: inhibition of COX-1-catalyzed oxidation of arachidonic acid
Type: biochemical
Conditions: at concentrations up to 1 mM

Cc1nc2c(c(C)c1O)CNC(=O)N2 [compound 13]
COX-1 inhibition (in words): not able to significantly inhibit COX-1
